Results reported in a melting point compilation (Tetko et al.; mined from patent text by program, amines drawn as free bases though some values may be those of a salt).

SMILES | melting point [°C]
O=C(O)C[C@H](NC(=O)Nc1ccc([N+](=O)[O-])cc1)C(=O)O | 118 to 120
CN(C)C(=O)N(C)C(=O)Nc1ccc(Cl)cc1 | 94.5 to 95
CCc1ccc(-c2ccc(Cl)cc2)cc1 | 103
CN=Cc1ccc(-c2ccc(OC)c(Br)c2)cc1 | 115 to 117
O=C(O)c1[nH]c(-c2ccccc2)cc1-c1ccc(O)cc1 | 192 to 193
Clc1nc(Cl)c2ncn(C3CC3)c2n1 | 121 to 124
NC1=Nc2cccc3c(=O)[nH]nc(c23)N1 | > 300
COc1ccc2cc(C3=CCNCC3)sc2c1 | 124 to 127
CCN(CC)CCOc1ccc([N+](=O)[O-])cc1NC(C)=O | 117
CC1(C)Oc2ccc(C#N)cc2[C@H](N(Cc2ccco2)c2ncco2)[C@H]1O | 63
CN(CCCCOCC(=O)O)c1nnc(-c2ccccc2)c(-c2ccccc2)n1 | 108 to 110
Nc1nc2ccccc2c2c1ncn2Cc1cc(-c2ccc(F)cc2)no1 | 259 to 260
C[C@H](NC(=O)Cc1ccc(F)cc1)C(=O)N[C@@H]1C(=O)Nc2ccccc2O[C@@H]1c1ccccc1 | 130 to 140
COc1cc(OC)c(NC(=O)[C@H](Cc2ccc(OCc3ccccc3)cc2)NC(=O)OC(C)(C)C)c(OC)c1 | 89 to 95
Cc1sc(C(N)=O)c2c1-c1c(cnn1C)CC2 | 184 to 185
Cc1cc(O)ccc1-c1nc2cc(O)cc(Br)c2o1 | 120 to 135

SMILES | melting point [°C]
O=c1[nH]c(=O)n(C2OC(CO)C(O)C2O)cc1C(Cl)=CI (stereo not drawn) | 109 to 111
COCCOC(=O)C1Oc2ccccc2Cc2ccccc2O1 | 74 to 76
CC(=O)c1ccc2c(c1)CCN(Cc1ccccc1)CC2 | 89 to 91
Nc1ccc(-c2cc3c(Nc4ccc(Cl)cc4F)ncnc3o2)cc1 | 229 to 232
Fc1ccc(Cn2c(OC3CCNCC3)nc3cncnc32)cc1 | 79.3
O=C(O)CCCCCc1nc2ccccc2o1 | 82
O=C1N(c2ccccc2)CCN1C1CCN(Cc2ccccc2)CC1 | 168 to 170
CCCCOc1ccc(C(=O)Nc2ccc3cc(CN4CCCC4C)cnc3c2C)cc1 (stereo not drawn) | 153 to 156
O=C(C(=O)c1cccc(OCCCN2CCCC2)c1)c1cccc(OCCCN2CCCC2)c1 | 136 to 139
CNC(=O)C(=NOC)C1=C(COc2ccccc2C)CC(C)=C(C)C1 | 96 to 98
COc1cc(Cl)c(C(=O)c2ccccc2F)c(OC)c1 | 88 to 92
COc1ccc(C2CCOCC2)cc1N | 102 to 103
CN[C@H]1CC[C@H](CO)CC1 | 87 to 88
CCCCCCCCC=CC(=O)c1c(C)[nH]n(-c2ccccc2)c1=O | 40
COC(=O)[C@@H]1[C@@H](C(=O)O)[C@H]2C=C[C@@H]1C2 | 78 to 79
c1ccc(-c2c[nH]c([C@@H](Cc3c[nH]c4ccccc34)Nc3ncccn3)n2)cc1 | 138 to 140

Results, then the molecule that gave them:

melting point [°C] | SMILES
119 to 120 | [N-]=[N+]=NC(C(=O)O)C1c2ccccc2C=Cc2ccccc21 (stereo not drawn)
152 to 155 | CCOC(=O)c1nc(C)oc1C(=O)NC(C)(C)C
242 to 245 | Cc1nc2c(N)nc3ccccc3c2n1CCS(C)(=O)=O
229 to 232 | COc1ccc(-c2nc(NC(=O)c3cccnc3)sc2-c2ccnc(NC(=O)c3cccnc3)c2)cc1
145 to 149 | O=C(c1ccc(Cl)cc1)c1cc(-c2ccc(Cl)cc2)c(N2CCOCC2)s1
117 to 119 | CC(=O)N1CCCN(NC(=O)c2ccc(F)cc2)CC1
106 to 110 | CCCCc1nc(COC)c(C(=O)OC)n1Cc1ccc(-c2ccccc2C(=O)O)cc1
243 to 244 | CCN1c2ncc(CCc3ccnc(O)c3)cc2C(=O)N(C)c2ccc(Cl)nc21
103 to 104 | COC(=O)COc1cccc(NC(=O)c2cc(-c3cccc(F)c3)ccc2F)c1
85 to 87 | CCCCCCCCCCCCC[C@@H](CC(N)=O)OC(=O)[C@H](CCCC(=O)OCc1ccccc1)NC(=O)c1cnc2ccccc2c1
217 to 218 | C[C@@H](n1cnc2c(cnn2-c2ccc(F)cc2)c1=O)[C@](O)(Cn1cncn1)c1ccc(F)cc1F
182 | CC(C)(C)OC(=O)Nc1ccc(C#Cc2nccs2)cc1N
268 to 270 | O=c1cc(-c2ccc(OCCOCCOc3ccc(-c4cc(=O)c5c(O)cc(O)cc5o4)cc3)cc2)oc2cc(O)cc(O)c12
61 | COCc1ncc(OC)c(=O)[nH]1
156 | Cc1cc(C(F)(F)C(F)(F)F)nc(N(C(N)=O)c2ccccc2[N+](=O)[O-])n1
247 | O=C(NC1CC1)c1cc(Nc2nc(Cl)nc3ccoc23)[nH]n1
174 to 176 | Clc1ccccc1/C=C/C1=CCN(Cc2c[nH]c3ncccc23)CC1
63 to 65 | CCCCCCCCCCCCCCCCCC(=O)NCCS
221 to 223 | COc1ncccc1Nc1c(NC(NC(=O)c2cc(F)cc(F)c2)C(C)(C)C)c(=O)c1=O (stereo not drawn)
89 to 91 | CC(=O)Oc1cccnc1-n1ccnc1SCc1ccccc1N1CCOCC1
135 | CCOC(=O)/C=C1\CCOc2ccc([N+](=O)[O-])cc21

melting point [°C] | SMILES
194 to 195 | C[C@H]1C(=O)Nc2ccc(Cl)cc2N1C(=O)Cl
208 to 210 | ON=Cc1ccc(-c2ccc(O)cc2)c(Cl)c1Cl
140 to 142 | CN(C)S(=O)(=O)n1c(C(=S)NCO)nc2cc(Cl)c(Cl)cc21
109 | CCOC(=O)c1ccc(CCC=O)cc1
209 to 210 | CN(c1cccc2cc(C3=NCC(C)(CN4CCN(S(C)(=O)=O)CC4)S3)[nH]c12)S(=O)(=O)c1cccs1 (stereo not drawn)
131 to 133 | O=C1CCC([N+](=O)[O-])C(c2cccc(Cl)c2)N1 (stereo not drawn)
183 | NS(=O)(=O)c1ncccc1NC=O
153 to 155 | COCCOC(=O)Nc1cccc(C)c1CNc1cccn2c(C=O)c(C)nc12
198 to 202 | CC1=Cc2cc3c(cc2C(c2ccc([N+](=O)[O-])c(C)c2)=NN1C(=O)NC1CC1)OCO3
148 to 150 | Cc1cc(C)c2nc(C)n(Cc3ccc(NCC4CCN(C5CCOCC5)CC4)cc3)c2n1
173 to 180 | O=C(/C=C/c1ccc(O)cc1)CC(=O)/C=C/c1ccccc1CO
216 to 218 | CCCCNc1nc2cccc(C(=O)OC)c2n1Cc1ccccc1-c1ccccc1-c1nnn[nH]1
> 114 | Cc1cc(N(C)C)ccc1-c1c(O)c(=O)c1=O
152 to 154 | CC(C)(C)OC(=O)CNC(=O)c1nc2cc(Cl)ccc2o1
206 to 208 | N#Cc1c[nH]cc1-c1cccc2c1OCO2
91 to 93 | N#CC1(C2CCCc3ccccc32)CC1 (stereo not drawn)
173 to 174 | Cn1c(COc2ccc(CC3SC(=O)NC3=O)cc2)nc2ccc(Oc3ccc(NC(=S)NC4CCCCC4)cc3)cc21 (stereo not drawn)
138 | N#CCCn1nc(-c2ccc(OCc3ccccc3)cc2)sc1=S
> 300 | O=C(Nc1ccccc1C(F)(F)F)OCc1nccn1-c1cc2cc(C(=O)O)c(=O)[nH]c2cc1Cl
122 to 130 | COc1cccc(CNc2nccc(-c3cc(N4CCN(CCCN5CCC5)CC4)c4cc(OC)ccc4c3)n2)c1
